# In US8378100B2, “Phosphonate derivatives as autotaxin inhibitors” (University of Virginia Patent Foundation, priority 2008, dated 2013):
# Target: recombinant human ATX (Homo sapiens, UniProt Q13822)
# Assay: Choline detection assay for ATX
# Type: biochemical
# Details: table of g1-g15 (β-keto phosphonates), activity without test compound = 100%; for ATX activity (%) 1 μM: 1 μM test compound; for ATX activity (%) 10 μM: 10 μM test compound; for ATX activity (%) 100 μM: 100 μM test compound
# Experimental: The phosphonate derivatives were tested in choline detection assay for ATX inhibition. The ATX activity assay was conducted in 0.1 ml, buffer: (in mM: Tris-HCl 100, pH9, NaCl 150, MgCl2 5, CoSO4 0.03, 0.05% Triton X-100), 1 mM 18:1 LPC, using recombinant human ATX with or without test compounds; incubation was for 16 hours at 37° C. The released choline was detected as follows: Samples were mixed with 0.15 ml of 50 mM TrisHCl containing 2.7 mM TOOS(N-ethyl-N-2-hydroxy-3-sulfopropyl)-m-toluidine, 2.7 mM 4-AAP (4-aminoantipyrine), 47.7 U/ml horseradish peroxidase, 18 U/ml choline oxidase, and 5 mM MgCl2. After 30 min incubation at 37° C., light absorbance (550 nm) was determined, and the amount of choline release was calculated from a standard curve.
# The ATX activity was measured in the presence of the test compounds under different concentrations (100 μM, 10 μM and 1 μM). The ATX activity without TEST compounds was used as the standard (100% activity). Some β-hydroxy phosphonate derivatives inhibited ATX activity at only the highest concentration tested. […] These two compounds were synthesized from protected L-tyrosine and they are diastereomers. The less polar isomer, f17, (also known as VPC8a202) was able to inhibit 73% of ATX activity at 1 μM.
ATX activity (%) 1 μM [%],ATX activity (%) 10 μM [%],ATX activity (%) 100 μM [%],SMILES
104,97,75,CCCCCCCCCCCCCCCC(=O)N[C@H](Cc1ccc(OCCC)cc1)C(=O)CP(=O)(O)O [g10]
,97,72,CCCCCCCCCCCCCCCC(=O)N[C@@H](Cc1ccc(OCCC)cc1)C(=O)CP(=O)(O)O [g11]
93,84,,CCCCCCCCCCCCCCCC(=O)N[C@H](Cc1ccc(OCCCCC)cc1)C(=O)CP(=O)(O)O [g12]
95,83,,CCCCCCCCCCCCCCCC(=O)N[C@@H](Cc1ccc(OCCCCC)cc1)C(=O)CP(=O)(O)O [g13]
